Laboratory results taken from paper PMC5862592, “CDK8/19 inhibition induces premature G1/S transition and ATR-dependent cell death in prostate cancer cells” (Oncotarget, 2018).
Like-named read-outs stand apart in the source and are kept apart here.

Assays:
Assay in all cases: biochemical
Design in all cases: KINOMEscan active site-directed competition binding assay (DiscoveRx), 456 kinases, per cent of control at 300 nM
Conditions in all cases: read-out: Percent of Control (%)
ERK3 = molecular target: T1, ERK3 (Homo sapiens, UniProt Q16659)
T1 construct: gene MAPK6
Method in brief: (§1)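 Values reflect active-site competition binding from a screen of 456 kinases, with test compounds at a fixed 300 nmol/L.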

PCTK3 = molecular target: T2, PCTK3 (Homo sapiens, UniProt Q07002)
T2 construct: gene CDK18
Method in brief: as §1

MINK = molecular target: T3, MINK (Homo sapiens, UniProt Q8N4C8)
T3 construct: gene MINK1
Method in brief: as §1

KIT(D816V) = KIT(D816V) (Homo sapiens, UniProt P10721, D816V)
Method in brief: as §1

ALK = ALK (Homo sapiens, UniProt Q9UM73)
Method in brief: as §1

WNK1 = WNK1 (Homo sapiens, UniProt Q9H4A3)
Method in brief: as §1

SGK2 = SGK2 (Homo sapiens, UniProt Q9HBY8)
SGK2, sequence (Q9HBY8 whole entry): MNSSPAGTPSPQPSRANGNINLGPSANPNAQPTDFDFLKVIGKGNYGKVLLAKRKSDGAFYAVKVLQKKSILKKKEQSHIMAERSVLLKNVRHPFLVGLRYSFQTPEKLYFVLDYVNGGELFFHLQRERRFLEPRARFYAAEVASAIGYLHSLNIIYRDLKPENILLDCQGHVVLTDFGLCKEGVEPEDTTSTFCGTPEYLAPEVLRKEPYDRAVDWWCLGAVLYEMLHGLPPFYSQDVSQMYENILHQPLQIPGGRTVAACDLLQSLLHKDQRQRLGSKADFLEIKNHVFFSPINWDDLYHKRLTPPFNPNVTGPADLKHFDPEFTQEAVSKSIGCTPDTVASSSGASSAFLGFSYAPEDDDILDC
Method in brief: as §1

[1] = molecular target: T4, ABL1(F317I)-nonphosphorylated (Homo sapiens, UniProt P00519, F317I)
T4 construct: nonphosphorylated
Method in brief: as §1

MYO3B = MYO3B (Homo sapiens, UniProt Q8WXR4)
MYO3B, sequence (Q8WXR4 whole entry): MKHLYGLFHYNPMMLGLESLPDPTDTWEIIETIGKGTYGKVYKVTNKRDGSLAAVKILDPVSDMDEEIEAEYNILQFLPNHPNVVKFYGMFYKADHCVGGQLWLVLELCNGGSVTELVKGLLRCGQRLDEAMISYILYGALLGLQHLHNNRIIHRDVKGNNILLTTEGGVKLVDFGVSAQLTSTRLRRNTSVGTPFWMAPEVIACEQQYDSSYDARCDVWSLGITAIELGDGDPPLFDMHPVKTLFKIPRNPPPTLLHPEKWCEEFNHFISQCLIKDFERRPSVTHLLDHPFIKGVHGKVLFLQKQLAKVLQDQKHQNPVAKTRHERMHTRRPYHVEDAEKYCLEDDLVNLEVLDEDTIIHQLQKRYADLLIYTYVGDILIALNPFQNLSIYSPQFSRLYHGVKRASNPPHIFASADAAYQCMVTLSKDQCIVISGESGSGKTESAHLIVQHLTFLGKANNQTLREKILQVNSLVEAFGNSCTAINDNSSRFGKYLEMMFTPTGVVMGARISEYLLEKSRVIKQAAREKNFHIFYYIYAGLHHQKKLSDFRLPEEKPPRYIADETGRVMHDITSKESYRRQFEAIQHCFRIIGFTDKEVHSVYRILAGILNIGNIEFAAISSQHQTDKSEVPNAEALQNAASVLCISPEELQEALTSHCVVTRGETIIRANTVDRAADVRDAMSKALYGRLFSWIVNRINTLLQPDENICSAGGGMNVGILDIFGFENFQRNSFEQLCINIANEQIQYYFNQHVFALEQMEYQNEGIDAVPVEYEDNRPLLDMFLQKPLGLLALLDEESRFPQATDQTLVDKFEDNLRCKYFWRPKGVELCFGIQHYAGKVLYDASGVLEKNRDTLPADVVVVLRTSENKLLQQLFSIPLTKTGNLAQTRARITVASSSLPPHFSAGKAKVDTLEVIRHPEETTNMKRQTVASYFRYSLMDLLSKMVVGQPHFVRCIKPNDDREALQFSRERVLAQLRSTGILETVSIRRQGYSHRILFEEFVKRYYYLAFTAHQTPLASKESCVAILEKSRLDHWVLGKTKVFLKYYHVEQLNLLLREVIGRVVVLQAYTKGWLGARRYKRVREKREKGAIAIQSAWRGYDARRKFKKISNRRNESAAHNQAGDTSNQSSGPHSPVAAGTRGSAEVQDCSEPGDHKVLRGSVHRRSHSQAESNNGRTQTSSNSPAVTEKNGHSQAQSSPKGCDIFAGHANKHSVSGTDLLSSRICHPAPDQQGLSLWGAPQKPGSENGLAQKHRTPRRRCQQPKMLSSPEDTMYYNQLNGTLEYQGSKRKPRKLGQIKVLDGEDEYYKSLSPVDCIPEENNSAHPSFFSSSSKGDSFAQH
Method in brief: as §1

DYRK2 = DYRK2 (Homo sapiens, UniProt Q92630)
DYRK2, sequence (Q92630 whole entry): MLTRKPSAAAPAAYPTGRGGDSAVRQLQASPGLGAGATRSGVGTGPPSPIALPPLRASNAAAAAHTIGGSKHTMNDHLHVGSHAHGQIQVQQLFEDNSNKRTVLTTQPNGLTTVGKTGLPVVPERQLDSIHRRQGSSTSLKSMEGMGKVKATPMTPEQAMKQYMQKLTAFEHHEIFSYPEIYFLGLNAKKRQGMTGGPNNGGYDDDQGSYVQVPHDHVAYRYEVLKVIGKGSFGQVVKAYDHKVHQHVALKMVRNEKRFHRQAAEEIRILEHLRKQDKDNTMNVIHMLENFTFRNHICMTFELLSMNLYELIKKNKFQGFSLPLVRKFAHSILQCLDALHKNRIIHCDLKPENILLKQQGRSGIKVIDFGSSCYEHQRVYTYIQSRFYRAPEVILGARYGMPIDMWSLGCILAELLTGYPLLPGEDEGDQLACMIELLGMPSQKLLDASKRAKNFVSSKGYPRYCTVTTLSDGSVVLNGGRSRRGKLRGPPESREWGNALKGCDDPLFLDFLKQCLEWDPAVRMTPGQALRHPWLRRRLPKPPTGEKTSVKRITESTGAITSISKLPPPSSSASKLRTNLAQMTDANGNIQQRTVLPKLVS
Method in brief: as §1

PAK6 = PAK6 (Homo sapiens, UniProt Q9NQU5)
Method in brief: as §1

TAOK3 = TAOK3 (Homo sapiens, UniProt Q9H2K8)
Method in brief: as §1

CSNK2A1 = CSNK2A1 (Homo sapiens, UniProt P68400)
CSNK2A1, sequence (P68400 whole entry): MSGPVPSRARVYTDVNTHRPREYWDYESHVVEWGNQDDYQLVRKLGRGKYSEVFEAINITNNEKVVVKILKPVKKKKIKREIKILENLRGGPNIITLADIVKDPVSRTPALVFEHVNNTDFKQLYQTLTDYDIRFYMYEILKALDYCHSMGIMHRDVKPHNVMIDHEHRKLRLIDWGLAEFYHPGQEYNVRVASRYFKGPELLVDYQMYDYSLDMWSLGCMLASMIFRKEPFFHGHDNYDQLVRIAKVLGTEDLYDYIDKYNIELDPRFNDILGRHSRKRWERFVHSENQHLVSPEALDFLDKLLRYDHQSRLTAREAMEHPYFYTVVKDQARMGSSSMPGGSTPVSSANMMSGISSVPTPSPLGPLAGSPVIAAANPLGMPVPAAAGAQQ
Method in brief: as §1

[2] = molecular target: T5, RPS6KA5(Kin.Dom.2-C-terminal) (Homo sapiens, UniProt O75582)
T5 construct: Kin.Dom.2-C-terminal
T5 sequence (O75582 whole entry): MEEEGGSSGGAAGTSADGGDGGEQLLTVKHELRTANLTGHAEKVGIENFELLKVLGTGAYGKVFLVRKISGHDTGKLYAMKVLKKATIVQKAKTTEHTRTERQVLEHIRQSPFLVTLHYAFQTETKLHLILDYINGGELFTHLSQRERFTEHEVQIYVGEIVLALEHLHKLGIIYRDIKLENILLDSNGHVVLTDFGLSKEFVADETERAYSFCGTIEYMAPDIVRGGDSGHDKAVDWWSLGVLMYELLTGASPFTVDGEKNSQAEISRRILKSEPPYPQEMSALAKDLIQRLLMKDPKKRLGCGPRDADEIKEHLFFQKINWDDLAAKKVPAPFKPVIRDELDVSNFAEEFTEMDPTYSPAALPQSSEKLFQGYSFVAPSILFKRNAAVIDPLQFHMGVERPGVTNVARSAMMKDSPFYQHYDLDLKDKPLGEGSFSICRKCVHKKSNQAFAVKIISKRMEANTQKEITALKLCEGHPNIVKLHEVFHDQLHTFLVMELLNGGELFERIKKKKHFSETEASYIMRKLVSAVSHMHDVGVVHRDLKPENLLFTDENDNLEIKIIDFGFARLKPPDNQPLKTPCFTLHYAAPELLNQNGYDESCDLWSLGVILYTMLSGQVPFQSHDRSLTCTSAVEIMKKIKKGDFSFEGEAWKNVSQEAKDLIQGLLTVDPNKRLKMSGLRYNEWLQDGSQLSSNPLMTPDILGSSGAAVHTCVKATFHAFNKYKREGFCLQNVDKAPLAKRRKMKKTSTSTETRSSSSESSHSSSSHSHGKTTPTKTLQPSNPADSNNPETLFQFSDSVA
Method in brief: as §1

FLT3-autoinhibited = FLT3-autoinhibited (Homo sapiens, UniProt P36888)
Method in brief: as §1

PIK3CB = PIK3CB (Homo sapiens, UniProt P42338)
Method in brief: as §1

MST1R = MST1R (Homo sapiens, UniProt Q04912)
Method in brief: as §1

CDK4-cyclinD3 = molecular target: T6, CDK4-cyclinD3 (Homo sapiens, UniProt P11802)
T6 construct: cyclinD3
T6 sequence (P11802 whole entry): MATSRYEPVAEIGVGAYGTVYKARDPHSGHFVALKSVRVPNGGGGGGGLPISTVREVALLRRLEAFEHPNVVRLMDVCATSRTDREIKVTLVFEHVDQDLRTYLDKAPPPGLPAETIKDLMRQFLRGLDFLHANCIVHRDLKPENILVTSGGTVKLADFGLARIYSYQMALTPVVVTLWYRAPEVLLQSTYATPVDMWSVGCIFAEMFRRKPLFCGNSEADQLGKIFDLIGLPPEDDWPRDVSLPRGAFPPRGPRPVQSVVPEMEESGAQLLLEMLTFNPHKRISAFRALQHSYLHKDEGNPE
T6 sequence (P30281 whole entry partner): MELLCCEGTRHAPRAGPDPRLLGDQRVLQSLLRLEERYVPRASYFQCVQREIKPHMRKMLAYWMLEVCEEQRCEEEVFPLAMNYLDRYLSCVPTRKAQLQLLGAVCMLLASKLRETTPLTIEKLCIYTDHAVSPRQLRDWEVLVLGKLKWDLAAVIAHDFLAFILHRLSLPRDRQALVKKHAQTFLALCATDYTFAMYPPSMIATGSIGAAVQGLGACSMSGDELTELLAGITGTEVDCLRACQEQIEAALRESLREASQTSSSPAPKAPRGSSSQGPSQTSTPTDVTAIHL
Method in brief: as §1

SIK2 = SIK2 (Homo sapiens, UniProt Q9H0K1)
SIK2, sequence (Q9H0K1 whole entry): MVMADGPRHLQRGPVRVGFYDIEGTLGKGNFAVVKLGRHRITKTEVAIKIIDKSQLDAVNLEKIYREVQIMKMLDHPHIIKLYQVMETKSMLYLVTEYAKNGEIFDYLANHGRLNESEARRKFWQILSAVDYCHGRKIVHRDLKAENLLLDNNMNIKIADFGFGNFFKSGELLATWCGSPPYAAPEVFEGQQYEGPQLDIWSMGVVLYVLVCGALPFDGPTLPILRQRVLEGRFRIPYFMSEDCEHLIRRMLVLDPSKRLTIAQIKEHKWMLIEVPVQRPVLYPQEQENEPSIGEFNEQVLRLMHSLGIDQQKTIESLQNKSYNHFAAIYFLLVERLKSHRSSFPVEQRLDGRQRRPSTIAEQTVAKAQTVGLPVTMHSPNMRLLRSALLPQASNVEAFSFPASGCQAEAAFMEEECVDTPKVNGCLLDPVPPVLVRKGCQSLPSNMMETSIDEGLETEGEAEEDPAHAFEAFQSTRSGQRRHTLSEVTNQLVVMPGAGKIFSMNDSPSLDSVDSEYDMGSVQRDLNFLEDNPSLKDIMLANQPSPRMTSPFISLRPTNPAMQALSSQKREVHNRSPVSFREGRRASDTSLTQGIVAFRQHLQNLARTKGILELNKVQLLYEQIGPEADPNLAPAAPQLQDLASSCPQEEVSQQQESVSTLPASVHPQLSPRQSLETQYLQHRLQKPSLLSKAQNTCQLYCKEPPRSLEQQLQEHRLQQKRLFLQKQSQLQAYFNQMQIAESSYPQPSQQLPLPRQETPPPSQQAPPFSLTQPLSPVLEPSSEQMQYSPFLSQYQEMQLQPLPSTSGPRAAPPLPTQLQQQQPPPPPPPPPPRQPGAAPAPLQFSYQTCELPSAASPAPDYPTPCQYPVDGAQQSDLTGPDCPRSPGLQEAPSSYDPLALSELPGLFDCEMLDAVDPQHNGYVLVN
Method in brief: as §1

PRKR = molecular target: T7, PRKR (Homo sapiens, UniProt P19525)
T7 construct: gene EIF2AK2
Method in brief: as §1

[3] = molecular target: T8, ABL1(F317I)-phosphorylated (Homo sapiens, UniProt P00519, F317I)
T8 construct: phosphorylated
Method in brief: as §1

PIK4CB = molecular target: T9, PIK4CB (Homo sapiens, UniProt Q9UBF8)
T9 construct: gene PI4KB
Method in brief: as §1

## Cc1ncccc1Oc1sc(C(N)=O)c2c1-c1c(cnn1C)CC2 [T-474, 1-methyl-8-((2-methylpyridin-3-yl)oxy)-4,5-dihydro-1H-thieno[3,4-g]indazole-6-carboxamide]
ERK3
  remaining binding at 0.3 µM: 78%
PCTK3
  remaining binding at 0.3 µM: 100%
MINK
  remaining binding at 0.3 µM: 100%
KIT(D816V)
  remaining binding at 0.3 µM: 94%
ALK
  remaining binding at 0.3 µM: 98%
WNK1
  remaining binding at 0.3 µM: 100%
SGK2
  remaining binding at 0.3 µM: 95%
[1]
  remaining binding at 0.3 µM: 100%
MYO3B
  remaining binding at 0.3 µM: 84%
DYRK2
  remaining binding at 0.3 µM: 100%
PAK6
  remaining binding at 0.3 µM: 89%
TAOK3
  remaining binding at 0.3 µM: 88%
CSNK2A1
  remaining binding at 0.3 µM: 61%
[2]
  remaining binding at 0.3 µM: 100%
FLT3-autoinhibited
  remaining binding at 0.3 µM: 78%
PIK3CB
  remaining binding at 0.3 µM: 100%
MST1R
  remaining binding at 0.3 µM: 95%
CDK4-cyclinD3
  remaining binding at 0.3 µM: 98%
SIK2
  remaining binding at 0.3 µM: 100%
PRKR
  remaining binding at 0.3 µM: 100%
[3]
  remaining binding at 0.3 µM: 100%
PIK4CB
  remaining binding at 0.3 µM: 100%

## O=C(/C=C/c1cnccc1-c1ccc(F)cc1)Nc1ccc(CCc2nnco2)cc1 [T-418, (2E)-3-(4-(4-fluorophenyl)pyridin-3-yl)-N-(4-(2-(1,3,4-oxadiazol-2-yl)ethyl)phenyl)acrylamide]
ERK3; sheet T-418
  remaining binding at 0.3 µM: 68%
PCTK3; sheet T-418
  remaining binding at 0.3 µM: 100%
MINK; sheet T-418
  remaining binding at 0.3 µM: 80%
KIT(D816V); sheet T-418
  remaining binding at 0.3 µM: 96%
ALK; sheet T-418
  remaining binding at 0.3 µM: 81%
WNK1; sheet T-418
  remaining binding at 0.3 µM: 100%
SGK2; sheet T-418
  remaining binding at 0.3 µM: 94%
[1]; sheet T-418
  remaining binding at 0.3 µM: 100%
MYO3B; sheet T-418
  remaining binding at 0.3 µM: 52%
DYRK2; sheet T-418
  remaining binding at 0.3 µM: 100%
PAK6; sheet T-418
  remaining binding at 0.3 µM: 85%
TAOK3; sheet T-418
  remaining binding at 0.3 µM: 90%
CSNK2A1; sheet T-418
  remaining binding at 0.3 µM: 84%
[2]; sheet T-418
  remaining binding at 0.3 µM: 100%
FLT3-autoinhibited; sheet T-418
  remaining binding at 0.3 µM: 89%
PIK3CB; sheet T-418
  remaining binding at 0.3 µM: 96%
MST1R; sheet T-418
  remaining binding at 0.3 µM: 100%
CDK4-cyclinD3; sheet T-418
  remaining binding at 0.3 µM: 95%
SIK2; sheet T-418
  remaining binding at 0.3 µM: 100%
PRKR; sheet T-418
  remaining binding at 0.3 µM: 100%
[3]; sheet T-418
  remaining binding at 0.3 µM: 100%
PIK4CB; sheet T-418
  remaining binding at 0.3 µM: 100%
